# Data from patent publication US20070161691A1, “Modified-protein formation inhibitor” (TOKAI UNIVERSITY, priority 2003, published 2007).
# Assay: Absorbability examination, oral administration to rat
# Assay type: in vivo
# Conditions: 50 mg/kg oral
# Description: For 4-(5-phenyltetrazol-1-yl methyl)-morpholine (compound 1) and (5-phenyltetrazol-1-yl)methanol (compound 3), their sorbability were examined. Each compounds are suspended in carboxymethyl cellulose in given concentration to prepare sample for oral administration. Then each samples were administered in the ratio of 50 mg/kg to rat using sonde. Five Wister rats (male, 8 weeks aged, closed colony) were used every one group. At one hour, 2 hours, 6 hours and 24 hours after the administration of compound, blood was obtained. The obtained blood samples were immediately cetrifuged at 3000 rpm for 15 minutes to obtain the blood plasma and the concentration of the compound in the specimen was quantitated by HPLC. Briefly, to 100 μL of obtained blood plasma was added to 200 μL of acetonitrile, centrifuged at 12000 rpm for 10 minutes to obtain supernatant, deproteinized and served to HPLC. The measuring condition of HPLC was selected from suitable condition for each compounds to separate and quantify. For example, in case of 4-(5-phenyltetrazol-1-yl methyl)-morpholine (compound 1), separated with reverse-phase C18 column (4.6×250 mm, 5 μm: Waters), and then detected using ultraviolet detector (RF-10A: Shimazu Seisakusho) at 240 nm of wavelength to quantify. In mobile phase, the flow rate is 0.8 mL/min and solvent is water: acetonitrile.
structure (smiles),measurement,value
"c1ccc(-c2nnnn2CN2CCOCC2)cc1 [Compound 1, 4-(5-phenyltetrazol-1-ylmethyl)-morpholine]",sorbability (plasma concentration after oral administration),good sorbability
